According to PMC11500415, “Chemical inhibition of stomatal differentiation by perturbation of the master-regulatory bHLH heterodimer via an ACT-Like domain” (Nature Communications, 2024):
“And” between values parts separate entries of the source, which are not always exact repeats. Equal entries are not always repeated. Where two headings read alike, the source gives them in different places.

Assays:
Assay in all cases: BLI direct binding
Parameters in all cases: species or system A. thaliana
[1] = target: T1, FAMA_ACTL (Arabidopsis thaliana, UniProt Q56YJ8)
T1 construct: FAMA-ACTL (306-414); GST (N, cleaved yes); made in house; host or cells: E. coli BL21
Excerpt: (§1) A. thaliana SCRM (1-494), ΔNSPCH (98-364), MUTE (1-202), ΔNFAMA (190-414), MUTEΔC (1-114), MUTER133A_R134A, MUTEE162A_E163A, MUTER133A_R134A_E162A_E163A, SCRM-ACTL (405-494), MUTE-ACTL (114-202), SPCH-ACTL (285-364), FAMA-ACTL (306-414), MUTE_ACTLR133A_R134A, MUTE_ACTLE162A_E163A, MUTE_ACTLR133A_R134A_E162A_E163A were cloned into pGEX-4T-1 vector with an N-terminal GST tag and a thrombin cleavage sequence. For protein expression, the constructs were transformed into E. coli strain BL21. For each transformant, a single colony was selected and incubated in 10 ml LB liquid media. The overnight-incubated E. coli suspensions were transferred to 1 L LB medium and incubated at 37 °C for around 2 h until the OD600 reached 0.4–0.6. The isopropyl β-D-1-thiogalactopyranoside ([…] of final concentration) was added to the cultures and the strains were incubated at 22 °C for a further 18 h. GST-fused proteins were purified using glutathione agarose resin. The soluble portion of the cell lysate was loaded onto a GST-Sepharose column. Nonspecifically bound proteins were removed by washing the column with 20 mM Tris pH 8.0, 200 mM NaCl. The bound GST-fused protein was eluted with 10 mm glutathione and 20 mM Tris pH 8.0, 200 mM NaCl. The GST-fused proteins were exchanged with phosphate-buffered saline buffer, and then the solution was treated with 50 μg of thrombin for 10–12 h at 16 ^οC. The GST portion of the protein was cleaved during thrombin digestion, and then the whole solution was reloaded onto the glutathione S-transferase column to obtain pure protein. The purified proteins were further purified by gel filtration on a Superdex-200 (GE) column using fast protein liquid chromatography and phosphate buffer (pH 7.2) as the eluent. The purity of the protein was checked by SDS-PAGE. For detailed lists of oligo DNA and plasmid information, see Supplementary Tables 5, 6, respectively.
(§2) The binding affinities of SCRM to MUTE / MUTER133A_R134A / MUTEE162A_E163A / MUTER133A_R134A_E162A_E163A in presence and absence of Stomidazolone (3) and its analogues (AYSJ1059 (5) and AYSJ1061 (6)), and Stomidazolone / AYSJ1059 / AYSJ1061 interactions with GST-tagged SCRM, MUTE, SPCH, FAMA, MUTE ΔACTL, MUTE_ACTL, SCRM_ACTL, SPCH_ACTL and FAMA_ACTL, MUTER133A_134A, MUTEE162A_E163A, MUTER133A_R134A_E162A_E163A were measured using the Octet Red96 system (ForteBio, Pall Life Sciences) following the manufacturer’s protocols. The optical probes coated with anti-GST were first loaded with 500 nM GST tagged proteins before kinetic binding analyses. The experiment was performed in 96-well plates maintained at 30 °C. Each well was loaded with 200 μL reaction volume for the experiment. The binding buffer used in these experiments contained 1× PBS supplemented with 2% DMSO, 0.02% Tween20. The concentrations of the Stomidazolone as the analyte in the binding buffer were 100, 50, 25, 12.5, 6.25, 3.12, and 1.56 μM. There was no binding of the analytes to the unloaded probes as shown by the control wells. Binding kinetics to all seven concentrations of the analytes were measured simultaneously using default parameters on the instrument. The data were analyzed using the Octet data analysis software. The association and dissociation curves were fit with the 1:1 homogeneous ligand model. The kobs (observed rate constant) values were used to calculate Kd, with steady-state analysis of the direct binding. See Supplementary Table 3 for details.

[2] = target: T2, MUTE_ACTLR133A_R134A (Arabidopsis thaliana, UniProt Q9M8K6, R133A/R134A); conditions: for koff: read-out: kdis(1/s), MUTE_R133A_R134A on Anti-GST sensor
T2 construct: MUTE-ACTL (114-202); made in house; host or cells: E. coli BL21
Excerpt: as §1, §2

[3] = target: T3, SPCH_ACTL (Arabidopsis thaliana, UniProt Q700C7)
T3 construct: SPCH-ACTL (285-364); GST (N, cleaved yes); made in house; host or cells: E. coli BL21
Excerpt: as §1, §2

[4] = BLI steady state, read-out: KD (SS)
[5] = MUTE_R133A_R134A on Anti-GST sensor, Stomid 3.12 µM, rep-1, rep-2
[6] = MUTE_R133A_R134A on Anti-GST sensor, Stomid 6.25 µM, rep-1, rep-2
[7] = MUTE_R133A_R134A on Anti-GST sensor, Stomid 12.5 µM, rep-1, rep-2
[8] = MUTE_R133A_R134A on Anti-GST sensor, Stomid 25 µM, rep-1, rep-2
[9] = MUTE_R133A_R134A on Anti-GST sensor, Stomid 50 µM, rep-1, rep-2
[10] = MUTE_R133A_R134A on Anti-GST sensor, Stomid 100 µM, rep-1, rep-2
[11] = MUTE_R133A_R134A on Anti-GST sensor, Stomid 200 µM, rep-1, rep-2

T2 sequence (Q9M8K6 114-202 R133A/R134A): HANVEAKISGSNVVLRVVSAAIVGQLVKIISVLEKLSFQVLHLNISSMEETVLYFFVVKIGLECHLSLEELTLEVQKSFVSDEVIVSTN
T3 sequence (Q700C7 285-364): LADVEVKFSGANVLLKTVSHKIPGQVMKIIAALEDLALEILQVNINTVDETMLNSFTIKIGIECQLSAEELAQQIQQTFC
T1 sequence (Q56YJ8 306-414): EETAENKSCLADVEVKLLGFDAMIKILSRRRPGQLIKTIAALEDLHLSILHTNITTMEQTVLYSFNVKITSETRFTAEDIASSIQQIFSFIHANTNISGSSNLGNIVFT

## O=C1C(c2ccccc2)=NC(NS(=O)(=O)c2ccccc2)(c2ccccc2)N1S(=O)(=O)c1ccccc1 (stereo not drawn) [Stomidazolone]
[1]; [4]
  Kd: 105 ± 13.8 µM
[1]; BLI, read-out: KD
  Kd: 95.2 ± 3.5 µM
[2]; BLI, MUTE_ACTL R133A_R134A
  Kd: 120 ± 5.5 µM
[2]; [5]
  Kd: 127 µM and 126 µM
  RMax: 0.03 and 0.048
  Req/Rmax(%): 93.1% and 100%
  Response: 0.027 and 0.0456
[2]; [6]
  Kd: 128 µM and 127 µM
  RMax: 0.06 and 0.08
  Req/Rmax(%): 100%
  Response: 0.058 and 0.079
  kobs: 0.00193 s⁻¹ and 0.00258 s⁻¹
  kon: 976 M⁻¹ s⁻¹
[2]; [7]
  Kd: 126 µM and 124 µM
  RMax: 0.092 and 0.085
  Req/Rmax(%): 93.1% and 100%
  Response: 0.092 and 0.081
  kdis: 0.124 s⁻¹
[2]; [8]
  Kd: 128 µM and 126 µM
  Req/Rmax(%): 78.8% and 93.9%
  kdis: 0.123 s⁻¹
  kobs: 0.00186 s⁻¹ and 0.00281 s⁻¹
  kon: 975 M⁻¹ s⁻¹
[2]; [9]
  Kd: 127 µM and 125 µM
  RMax: 0.195 and 0.225
  Response: 0.193 and 0.2221
  kdis: 0.122 s⁻¹
  kon: 976 M⁻¹ s⁻¹
[2]; [10]
  Kd: 130 µM and 127 µM
  RMax: 0.244 and 0.289
  Req/Rmax(%): 96.5% and 96.6%
  Response: 0.242 and 0.284
  kobs: 0.00717 s⁻¹ and 0.00706 s⁻¹
  kon: 980 M⁻¹ s⁻¹
[2]; [11]
  Kd: 127 µM and 130 µM
  RMax: 0.344 and 0.38
  Req/Rmax(%): 99.9% and 99.8%
  Response: 0.341 and 0.375
  kdis: 0.125 s⁻¹
  kobs: 0.0285 s⁻¹ and 0.0284 s⁻¹
  kon: 960 M⁻¹ s⁻¹
[2]; Stomid 3.12 µM, rep-1, rep-2
  koff: 0.122 s⁻¹
[2]; Stomid 6.25 µM, rep-1, rep-2
  koff: 0.124 s⁻¹
[2]; Stomid 12.5 µM, rep-1, rep-2
  koff: 0.125 s⁻¹
[2]; Stomid 25 µM, rep-1, rep-2
  koff: 0.125 s⁻¹
[2]; Stomid 50 µM, rep-1, rep-2
  koff: 0.123 s⁻¹
[2]; Stomid 100 µM, rep-1, rep-2
  koff: 0.125 s⁻¹
[2]; Stomid 200 µM, rep-1, rep-2
  koff: 0.126 s⁻¹
[2]; read-out: kon(1/Ms), MUTE_R133A_R134A on Anti-GST sensor, Stomid 3.12 µM, rep-1, rep-2
  kon: 966 M⁻¹ s⁻¹
[2]; read-out: kon(1/Ms), MUTE_R133A_R134A on Anti-GST sensor, Stomid 6.25 µM, rep-1, rep-2
  kon: 970 M⁻¹ s⁻¹
[2]; read-out: kon(1/Ms), MUTE_R133A_R134A on Anti-GST sensor, Stomid 12.5 µM, rep-1, rep-2
  kon: 990 M⁻¹ s⁻¹
[2]; read-out: kon(1/Ms), MUTE_R133A_R134A on Anti-GST sensor, Stomid 25 µM, rep-1, rep-2
  kon: 980 M⁻¹ s⁻¹
[2]; read-out: kon(1/Ms), MUTE_R133A_R134A on Anti-GST sensor, Stomid 50 µM, rep-1, rep-2
  kon: 970 M⁻¹ s⁻¹
[2]; read-out: kon(1/Ms), MUTE_R133A_R134A on Anti-GST sensor, Stomid 100 µM, rep-1, rep-2
  kon: 960 M⁻¹ s⁻¹
[2]; read-out: kon(1/Ms), MUTE_R133A_R134A on Anti-GST sensor, Stomid 200 µM, rep-1, rep-2
  kon: 990 M⁻¹ s⁻¹
[3]; [4]
  Kd: 95.2 ± 3.8 µM
[3]; BLI, read-out: KD
  Kd: 88.1 ± 1.1 µM
